Columns and labels:
GCGR [1] = molecular target: GCGR (Homo sapiens, UniProt P47871, Y145A); test: Whole-cell binding assay, competition with 125I-GCG; design: V5 (C); 6×His (C); expressed in transfected cells; host or cells: CHO-K1; settings: GCGR Y145A, CHO-K1
Method: (§1) Human embryonic kidney 293 cells containing SV40 large T-antigen (HEK293T) were cultured in DMEM (Gibco) supplemented with 10% (v/v) fetal bovine serum (FBS, Gibco), 1 mM sodium pyruvate (Gibco) and 100 units/mL penicillin and 100 μg/mL streptomycin at 37 °C in 5% CO2. Chinese hamster ovary (CHO-K1) cells were cultured in F-12 (Gibco) containing 10% FBS, 100 units/mL penicillin and 100 μg/mL streptomycin at 37 °C in 5% CO2. For cAMP and receptor expression assays, HEK293T cells were seeded into 6-well cell culture plates at a density of 7 × 10^5 cells per well. After overnight incubation, cells were transfected with GIPR, GLP-1R or GCGR construct using Lipofectamine 2000 or Lipofectamine 3000 transfection reagent (Invitrogen). For whole-cell binding assay, CHO-K1 cells were seeded into 96-well fibronectin-treated cell culture plates at a density of 3 × 10^4 cells per well. After overnight incubation, cells were transfected with GIPR, GLP-1R or GCGR construct using Lipofectamine 2000 transfection reagent (Invitrogen). Following 24 h culturing, the transfected cells were ready for use.
(§2) For GLP-1R and GCGR, CHO-K1 cells (30,000 cells/well) were seeded into Isoplate-96 plates and incubated for 24 h at 37 °C in 5% CO2. The WT or mutant constructs were transiently transfected using Lipofectamine 2000 transfection reagent as previous described. They were then washed twice using F-12 with 0.1% BSA or 0.1% casein, 33 mM HEPES, and incubated for 2 h at 37 °C. […] Cells were washed three times with ice-cold PBS and lysed in PBS with 1% Triton X-100, 20 mM Tris-HCl. After addition of scintillation cocktail (PerkinElmer), radioactivity (CPM) was counted on a MicroBeta^2 microplate counter (PerkinElmer). Data were normalized to the WT response and analyzed using three-parameter logistic equation.

GCGR [2] = molecular target: GCGR (Homo sapiens, UniProt P47871, Y202A); test: as above; design: V5 (C); 6×His (C); expressed in transfected cells; host or cells: CHO-K1; settings: GCGR Y202A, CHO-K1
GCGR (Homo sapiens, UniProt P47871, Y202A), sequence (P47871 26-477 Y202A): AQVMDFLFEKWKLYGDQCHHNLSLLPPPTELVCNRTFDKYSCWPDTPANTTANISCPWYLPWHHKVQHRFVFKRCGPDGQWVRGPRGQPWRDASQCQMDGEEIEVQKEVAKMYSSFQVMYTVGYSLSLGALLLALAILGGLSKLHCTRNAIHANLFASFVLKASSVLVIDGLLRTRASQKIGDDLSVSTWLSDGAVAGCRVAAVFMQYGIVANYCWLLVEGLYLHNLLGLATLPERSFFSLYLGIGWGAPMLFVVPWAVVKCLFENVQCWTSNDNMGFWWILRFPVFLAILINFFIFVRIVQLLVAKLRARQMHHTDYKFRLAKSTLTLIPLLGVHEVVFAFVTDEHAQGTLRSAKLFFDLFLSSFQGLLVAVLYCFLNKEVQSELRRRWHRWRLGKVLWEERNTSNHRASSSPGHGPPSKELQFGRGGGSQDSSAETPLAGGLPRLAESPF
Method: as §1, §2

GCGR [3] = molecular target: GCGR (Homo sapiens, UniProt P47871, R199A); test: as above; design: V5 (C); 6×His (C); expressed in transfected cells; host or cells: CHO-K1; settings: GCGR R199A, CHO-K1
GCGR (Homo sapiens, UniProt P47871, R199A), sequence (P47871 26-477 R199A): as the sequence (P47871 26-477 Y202A) above, with R174A, A177Y counted along it
Method: as §1, §2

GCGR [4] = molecular target: GCGR (Homo sapiens, UniProt P47871, Q293A); test: as above; design: V5 (C); 6×His (C); expressed in transfected cells; host or cells: CHO-K1; settings: GCGR Q293A, CHO-K1
GCGR (Homo sapiens, UniProt P47871, Q293A), sequence (P47871 26-477 Q293A): as the sequence (P47871 26-477 Y202A) above, with A177Y, Q268A counted along it
Method: as §1, §2

GCGR [5] = molecular target: GCGR (Homo sapiens, UniProt P47871, W87A); test: as above; design: V5 (C); 6×His (C); expressed in transfected cells; host or cells: CHO-K1; settings: GCGR W87A, CHO-K1
GCGR (Homo sapiens, UniProt P47871, W87A), sequence (P47871 26-477 W87A): as the sequence (P47871 26-477 Y202A) above, with W62A, A177Y counted along it
Method: as §1, §2

GCGR [6] = molecular target: GCGR (Homo sapiens, UniProt P47871, K205A); test: as above; design: V5 (C); 6×His (C); expressed in transfected cells; host or cells: CHO-K1; settings: GCGR K205A, CHO-K1
GCGR (Homo sapiens, UniProt P47871, K205A), sequence (P47871 26-477 K205A): as the sequence (P47871 26-477 Y202A) above, with A177Y, K180A counted along it
Method: as §1, §2

GCGR [7] = molecular target: GCGR (Homo sapiens, UniProt P47871, D195A/Q142A/R199A); test: as above; design: V5 (C); 6×His (C); expressed in transfected cells; host or cells: CHO-K1; settings: GCGR Q142A/D195A/R199A, CHO-K1
GCGR (Homo sapiens, UniProt P47871, D195A/Q142A/R199A), sequence (P47871 26-477 Q142A/D195A/R199A): as the sequence (P47871 26-477 Y202A) above, with Q117A, D170A, R174A, A177Y counted along it
Method: as §1, §2

GIPR = molecular target: T1, GIPR (Homo sapiens, UniProt P48546, R192A); test: Whole-cell binding assay, competition with 125I-GIP1-42; design: acylated tirzepatide to the full-length or modified; Flag; expressed in transfected cells; settings: GIPR R192A, CHO-K1
T1 sequence (P48546 22-466 R192A): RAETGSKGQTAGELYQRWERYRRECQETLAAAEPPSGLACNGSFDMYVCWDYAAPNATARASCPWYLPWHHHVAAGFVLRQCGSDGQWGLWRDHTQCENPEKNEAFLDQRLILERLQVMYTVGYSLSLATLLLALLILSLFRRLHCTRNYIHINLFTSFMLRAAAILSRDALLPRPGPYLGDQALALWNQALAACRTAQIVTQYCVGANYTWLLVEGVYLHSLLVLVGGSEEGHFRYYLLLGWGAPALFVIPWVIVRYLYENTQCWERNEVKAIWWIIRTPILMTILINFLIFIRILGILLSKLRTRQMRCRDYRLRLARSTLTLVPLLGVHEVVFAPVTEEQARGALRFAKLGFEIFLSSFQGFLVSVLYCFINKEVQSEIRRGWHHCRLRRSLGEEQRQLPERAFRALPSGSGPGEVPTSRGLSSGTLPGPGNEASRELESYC
Outline: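 Transiently transfected CHO-K1 cells expressing WT or mutant GIPR were washed in F-12 with 0.1% BSA or 0.1% casein and 33 mM HEPES, then incubated 2 h at 37 °C. After ice-cold PBS washes, cells were lysed and bound radioactivity counted (CPM).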

[8] = read-out: binding pIC50 (converted)

GCGR (Homo sapiens, UniProt P47871, Y145A), sequence (P47871 26-477 Y145A): as the sequence (P47871 26-477 Y202A) above, with Y120A, A177Y counted along it

CCCCCCCCCCCCCCCC(=O)N[C@@H](CCC(=O)NCCCC[C@H](NC(=O)[C@H](CC(=O)O)NC(=O)[C@H](CO)NC(=O)[C@@H](NC(=O)[C@H](Cc1ccccc1)NC(=O)[C@@H](NC(=O)CNC(=O)[C@H](CCC(N)=O)NC(=O)C(C)(C)NC(=O)[C@@H](N)Cc1c[nH]cn1)[C@@H](C)O)[C@@H](C)O)C(=O)N[C@@H](CO)C(=O)N[C@@H](CCCCN)C(=O)N[C@@H](Cc1ccc(O)cc1)C(=O)N[C@@H](CC(C)C)C(=O)N[C@@H](CC(=O)O)C(=O)N[C@@H](CCC(=O)O)C(=O)N[C@@H](CCCNC(=N)N)C(=O)N[C@@H](C)C(=O)N[C@@H](C)C(=O)N[C@@H](CCC(N)=O)C(=O)N[C@@H](CC(=O)O)C(=O)N[C@@H](Cc1ccccc1)C(=O)N[C@H](C(=O)N[C@@H](CCC(N)=O)C(=O)N[C@@H](Cc1c[nH]c2ccccc12)C(=O)N[C@@H](CC(C)C)C(=O)N[C@@H](CC(C)C)C(=O)N[C@@H](CC(=O)O)C(=O)NCC(=O)NCC(=O)N1CCC[C@H]1C(=O)N[C@@H](CO)C(=O)N[C@@H](CO)C(=O)NCC(=O)N[C@@H](C)C(=O)N1CCC[C@H]1C(=O)N1CCC[C@H]1C(=O)N1CCC[C@H]1C(=O)N[C@@H](CO)C(N)=O)C(C)C)C(=O)O [Peptide 20]
binding Span (GCGR [1]): 4.34 ± 3.92 % WT
IC50 (GCGR [1]; [8]): 0.457 nM
binding Span (GCGR [2]): 5.12 ± 1.71 % WT
IC50 (GCGR [2]; [8]): 18.6 nM
binding Span (GCGR [3]): 59.87 ± 5.43 % WT
IC50 (GCGR [3]; [8]): 178 nM
binding Span (GCGR [4]): 135.17 ± 6.41 % WT
IC50 (GCGR [4]; [8]): 132 nM
binding Span (GCGR [5]): 4.68 ± 2.95 % WT
IC50 (GCGR [5]; [8]): 1.51 nM
binding Span (GCGR [6]): 130.88 ± 9.06 % WT
IC50 (GCGR [6]; [8]): 182 nM
binding Span (GCGR [7]): 24.37 ± 1.80 % WT
IC50 (GCGR [7]; [8]): 30.2 nM
binding Span (GIPR): 71.60 ± 4.11 % WT
IC50 (GIPR; [8]): 24 nM
